The test system of assay [1] is LUHMES cells. Briefly: Intracellular ATP content after NeuriTox exposure. Format: cell-based. To be noted: Homo sapiens, 24 h. The protocol:
(§1) The NeuriTox test was performed as previously described (Delp et al. [2018b]; Krug et al. [2013a]; Stiegler et al. [2011]). Briefly, cells differentiated for 48 h were re-seeded into 96-well plates at a density of 100,000 cells/cm^2 in DM without cAMP and GDNF, and treated 1 h after seeding for 24 h. Subsequently, multiple endpoints were determined, e.g., neurite outgrowth (i.e., NeuriTox test), resazurin reduction, intracellular ATP content, gene expression levels from TempO-Seq analysis, and proteasomal activity. For the 120 h exposure scenario, LUHMES cells were differentiated for another 3 days after reseeding before they were treated on day 5 (d5) and d7 by a half medium exchange. Endpoints were determined on d10 of differentiation.
Plates from the NeuriTox test were further used after imaging for determination of alternative endpoints. Intracellular ATP was determined as described earlier (Delp et al. [2019]). In brief, CellTiterGlo 2.0 assay mix (Promega) containing luciferase was added after imaging, and luminescence was recorded. For the determination of resazurin reduction, a 10 × resazurin stock solution was added after imaging to the medium (final resazurin concentration 2 µg/ml) (Delp et al. [2018a]). After 60 min incubation, resazurin fluorescence was recorded (ex: 530 nm, em: 590 nm). Background-corrected data was used for further analysis.

Another assay relates to SH-SY5Y cells. The format is cell-based, human. To be noted: up to 10 µM; for Neurite degeneration: 24 h exposure, without affecting viability; for Neurite degeneration (in words) / Reduction in viability: 120 h exposure. On the procedure: The cells are able to form neurites and display several dopaminergic characteristics. […] Differentiation was initiated 24 h later (on day 0, d0) by exchange to 100 µl/well differentiation medium (DMEM:F12, supplemented with 1 µM all-trans retinoic acid (RA), 1 × N2 supplement, 2 mM L-glutamine, 100 µg/ml streptomycin, and 100 U/ml penicillin). All media and supplements were obtained from Gibco (ThermoFisher) except from RA (Sigma).
On d3, 100 µl of fresh differentiation medium were added to the wells. For the 120 h exposure, this medium contained twice the final treatment concentration. On d6, 100 µl from each well were removed, and the procedure was repeated and the cells were analyzed on d8. For the 24 h exposure, cells received an addition of 100 µl pure differentiation medium on d3 and were treated with compounds as described above on d6 for 24 h before analysis. […] The cells were incubated with the stain mixture for 20 min at 37 °C, 5% CO2. After incubation, 130 µL of differentiation medium were added to all the wells to stop further staining of the cells. Images were obtained using ImageXpress® Micro (Molecular Devices). […] The mean neurite length was calculated using the Neurite Outgrowth plug-in in the MetaXpress® Software. Outgrowths were defined as cytoplasmic prolongations with a maximum width of 2 µm (3 pixels). The minimum outgrowth size needed to be logged as significant was defined as 15 µm (23 pixels).

Assay [2] has as its system LUHMES cells. Briefly: LUHMES 120 h exposure scenario, neurite effects. The format is cell-based, human. The protocol: as §1
Image acquisition and analysis was performed as described previously (Krug et al. [2013a]; Schildknecht et al. [2013]; Stiegler et al. [2011]). In brief, cells were live-stained with 1 µg/ml Hoechst H-33342 and 1 µM calcein-AM and image acquisition was done by an automated high content imager (Cellomics, Waltham, MA, USA). Cell viability was determined as ratio of live cells (cell bodies being Calcein- and Hoechst-positive) relative to the total amount of cells (Hoechst-positive cell bodies). Neurite area was calculated by subtracting the somatic area (Hoechst-positive area plus surrounding) from the calcein-positive area.

The target in a further assay is T1, cII (Homo sapiens, UniProt O14521+P21912+Q99643).
T1 construct: endogenous in cells; host or cells: LUHMES cells, digitonin-permeabilized
The assay can be described thus: Respiratory chain complex activity in permeabilized LUHMES cells: cII. The format is cell-based. As to conditions: mepronil at 100 µM. The protocol: (§2) To investigate individual respiratory chain complexes, a method developed earlier and described extensively was used (Delp et al. [2019]). In brief, LUHMES cells were seeded at a density of 205,000 cells/cm^2 in PM into Agilent Seahorse XFe24-well plates. […] To reduce data variability, internal normalization of the OCR of each well was done relative to its value after equilibration.

For a further assay, the target named is T2, cI (Homo sapiens, UniProt O75251+O75306+P03886).
T2 construct: endogenous in cells; host or cells: LUHMES cells, digitonin-permeabilized
Format: cell-based. To be noted: permeabilized LUHMES; capsaicin 50 µM, mepronil 100 µM. The protocol: as §2

For assay [3], the system named is LUHMES cells. The assay can be described thus: Mitochondrial respiration of intact LUHMES cells (Seahorse OCR). To be noted: d3 LUHMES, acute treatment, highest non-cytotoxic concentration (cII inhibitors 100 µM). Format: cell-based, human. On the procedure: Respiration of intact LUHMES cells was performed as described earlier (Delp et al. [2018a], [2019]). Briefly, 48 h differentiated cells were re-seeded into Agilent Seahorse XFe24-well plates in DM without cAMP and GDNF at a density of 100,000 cells/cm^2 and cultured for 24 h before the assay was initiated. Inhibition of respiration was calculated as the difference between baseline measurements (i.e., after equilibration, last measurement before treatment) and the first measurement after treatment with the test compound.

Where [4] appears, read: NeuriTox exposure scheme, read-out: LUHMES 24 h EC25 ATP (converted).

Entries after “also recorded” stand apart in the source; their conditions may differ. Read-outs that look alike come from different tables or passages of the source.

T1 sequence (P21912 29-280): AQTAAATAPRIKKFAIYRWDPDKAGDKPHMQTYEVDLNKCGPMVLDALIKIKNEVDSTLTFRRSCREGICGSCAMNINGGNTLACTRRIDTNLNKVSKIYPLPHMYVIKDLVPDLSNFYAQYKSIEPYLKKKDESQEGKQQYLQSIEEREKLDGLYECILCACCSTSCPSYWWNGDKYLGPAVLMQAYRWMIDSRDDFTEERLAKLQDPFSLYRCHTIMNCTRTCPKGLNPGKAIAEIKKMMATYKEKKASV
T1 sequence (Q99643 30-169): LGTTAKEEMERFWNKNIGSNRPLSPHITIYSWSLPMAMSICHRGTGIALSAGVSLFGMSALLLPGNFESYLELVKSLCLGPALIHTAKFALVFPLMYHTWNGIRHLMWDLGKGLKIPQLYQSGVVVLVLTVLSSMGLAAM
T1 sequence (O14521 57-159): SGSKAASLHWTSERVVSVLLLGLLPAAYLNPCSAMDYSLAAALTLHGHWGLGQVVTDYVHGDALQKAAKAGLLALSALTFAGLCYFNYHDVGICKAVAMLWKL
T1 sequence (P31040 43-664 partner): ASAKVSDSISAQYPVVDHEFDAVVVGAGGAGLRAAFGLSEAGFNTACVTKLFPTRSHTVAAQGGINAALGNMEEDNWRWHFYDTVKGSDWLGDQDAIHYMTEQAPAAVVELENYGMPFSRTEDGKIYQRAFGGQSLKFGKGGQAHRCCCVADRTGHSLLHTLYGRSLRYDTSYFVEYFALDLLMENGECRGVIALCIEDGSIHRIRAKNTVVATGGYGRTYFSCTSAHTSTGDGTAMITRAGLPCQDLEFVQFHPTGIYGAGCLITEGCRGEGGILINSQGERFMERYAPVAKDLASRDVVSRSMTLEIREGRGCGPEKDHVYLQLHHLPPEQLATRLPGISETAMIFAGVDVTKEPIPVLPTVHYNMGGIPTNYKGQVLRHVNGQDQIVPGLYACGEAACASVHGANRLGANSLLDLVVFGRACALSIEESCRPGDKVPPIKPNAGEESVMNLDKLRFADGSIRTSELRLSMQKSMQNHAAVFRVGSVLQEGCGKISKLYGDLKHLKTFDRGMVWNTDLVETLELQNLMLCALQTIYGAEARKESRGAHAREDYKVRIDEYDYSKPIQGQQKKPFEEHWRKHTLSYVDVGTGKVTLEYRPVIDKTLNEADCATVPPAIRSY
T2 sequence (O75306 34-463): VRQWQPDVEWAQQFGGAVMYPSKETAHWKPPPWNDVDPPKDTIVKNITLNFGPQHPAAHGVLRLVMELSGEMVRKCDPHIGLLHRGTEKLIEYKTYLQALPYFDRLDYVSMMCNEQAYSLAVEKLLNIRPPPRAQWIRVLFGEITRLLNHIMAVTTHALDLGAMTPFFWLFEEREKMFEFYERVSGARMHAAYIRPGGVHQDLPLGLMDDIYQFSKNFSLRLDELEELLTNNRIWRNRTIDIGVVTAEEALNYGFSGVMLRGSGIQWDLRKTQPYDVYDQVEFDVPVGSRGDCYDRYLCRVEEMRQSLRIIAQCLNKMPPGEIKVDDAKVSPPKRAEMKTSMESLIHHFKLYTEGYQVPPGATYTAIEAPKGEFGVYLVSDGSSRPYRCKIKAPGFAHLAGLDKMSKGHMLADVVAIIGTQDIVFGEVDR
T2 sequence (P03886 whole entry): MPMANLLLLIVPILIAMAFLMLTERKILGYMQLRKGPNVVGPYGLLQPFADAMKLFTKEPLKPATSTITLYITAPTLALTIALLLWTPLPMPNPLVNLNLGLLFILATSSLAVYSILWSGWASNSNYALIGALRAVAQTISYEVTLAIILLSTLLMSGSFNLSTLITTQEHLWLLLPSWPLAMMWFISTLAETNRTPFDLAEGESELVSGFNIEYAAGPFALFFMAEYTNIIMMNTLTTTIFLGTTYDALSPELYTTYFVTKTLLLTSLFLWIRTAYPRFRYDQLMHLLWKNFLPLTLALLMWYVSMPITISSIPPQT
T2 sequence (O75251 39-213): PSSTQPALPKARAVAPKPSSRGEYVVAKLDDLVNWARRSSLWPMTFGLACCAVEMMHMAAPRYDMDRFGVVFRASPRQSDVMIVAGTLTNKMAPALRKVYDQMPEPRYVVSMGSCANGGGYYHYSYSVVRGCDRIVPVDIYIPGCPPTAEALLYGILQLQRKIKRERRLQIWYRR

One may read the EC25 as the concentration at which the effect reaches the 25% level. Take `C=C(C)[C@H]1Cc2c(ccc3c2O[C@@H]2COc4cc(OC)c(OC)cc4[C@@H]2C3=O)O1` [Rotenone]: the EC25 in the assay with LUHMES cells [1] (read-out: LUHMES 24 h EC25 ATP) is 5.01 µM. Further, in the assay with SH-SY5Y cells, the Neurite degeneration is above 25%, the “Neurite degeneration (in words)” value is “degeneration of neurites” and the Reduction in viability is given as above 25%.
Consider `CCOCCc1ccc(OCCN=c2[nH]cnc(CC)c2Cl)c(C)c1C` [Pyrimidifen], for which, in the assay with LUHMES cells [1] (setting [4]), the concentration for an effect of 25% (EC25) was 20 µM. The “Increase in sensitivity of neurite EC25, 120 h versus 24 h exposure” value (“Increase in sensitivity of neurite EC25” for short) in the assay with LUHMES cells [2] turned out to be 9.8 fold.
On to `CC1=C(C(=O)Nc2ccccc2)SCCO1` [Carboxin], for which, on cII, the “Inhibition of cII activity (in words)” value is given as “strong inhibition of cII”. Moreover, the EC25 in the assay with LUHMES cells [1] (setting [4]) was above 100 µM.
Regarding `Cc1nc(C(F)(F)F)c(C(=O)Nc2c(Br)cc(OC(F)(F)F)cc2Br)s1` [Thifluzamide], the “Inhibition of cII activity (in words)” value at cII is reported as “strong inhibition of cII”. In addition, the EC25 in the assay on LUHMES cells [1] (setting [4]) was 20 µM. The “Increase in sensitivity of neurite EC25” value in the assay on LUHMES cells [2] is on record as “five-to-eightfold”.
In the case of `Cc1ccccc1C(=O)Nc1cccc(OC(C)C)c1` [Mepronil], the “Inhibition of cII activity (in words)” value at cII is given as “significant, but weak inhibitor”. Besides, the EC25 in the assay with LUHMES cells [1] (setting [4]) was above 100 µM. Also, at cI, the “Inhibition of cI activity (in words)” value is reported as “weakly affected cI”.
On to `COc1cc(CNC(=O)CCCC/C=C/C(C)C)ccc1O` [Capsaicin], for which the “Inhibition of total mitochondrial respiration of intact cells” value (from here on “Inhibition … of intact cells”) in the assay with LUHMES cells [3] is on record as “weak response”. Further, the EC25 in the assay on LUHMES cells [1] (setting [4]) is above 50.1 µM. Further, the “Inhibition of cI activity (in words)” value at cI is “no significant response”.
Take `Cc1ccc(-c2c(Cl)nc(C#N)n2S(=O)(=O)N(C)C)cc1` [Cyazofamid]: in the assay on LUHMES cells [3], the “Inhibition … of intact cells” value was “inactive”. Besides, the 25% effect concentration (EC25) with LUHMES cells [1] (setting [4]) is above 50.1 µM. Also, in the assay with LUHMES cells [2], the “Increase in sensitivity of neurite EC25” value is given as “five-to-eightfold”. In the assay on SH-SY5Y cells, the Neurite degeneration was above 25%, the “Neurite degeneration (in words)” value was “degeneration of neurites; also recorded: increased neurite degeneration” and the Reduction in viability is listed as above 25%.
`CCCCCC[C@H]1C(=O)O[C@H](C)[C@H](NC(=O)c2cccc(NC=O)c2O)C(=O)O[C@@H](C)[C@@H]1OC(=O)CC(C)C` [Antimycin A]: the “Inhibition … of intact cells” value in the assay on LUHMES cells [3] is “strong inhibitory effects”. In the assay on LUHMES cells [1] (setting [4]), the EC25 is 25.1 µM. Moreover, in the assay with SH-SY5Y cells, the Neurite degeneration is given as above 25%, the “Neurite degeneration (in words)” value is “degeneration of neurites” and the Reduction in viability was above 25%.
In the case of `COc1cc2c(cc1OC)[C@@H]1C(=O)c3ccc4c(c3O[C@@H]1CO2)C=CC(C)(C)O4` [Deguelin], the concentration for an effect of 25% (EC25) in the assay on LUHMES cells [1] (setting [4]) was 10 µM. In addition, the “Increase in sensitivity of neurite EC25” value with LUHMES cells [2] is “five-to-eightfold”. For the same molecule, in the assay on SH-SY5Y cells, the Neurite degeneration entry was “no effects”, the “Neurite degeneration (in words)” value is listed as “degeneration of neurites; also recorded: increased neurite degeneration” and the Reduction in viability is reported as above 25%.
For the molecule `COC(=O)N(OC)c1ccccc1COc1ccn(-c2ccc(Cl)cc2)n1` [Pyraclostrobin], the EC25 with LUHMES cells [1] (setting [4]) is 12.6 µM. Also, the “Increase in sensitivity of neurite EC25” value in the assay on LUHMES cells [2] was “five-to-eightfold”.

(Values after article PMC7870626, “Neurotoxicity and underlying cellular changes of 21 mitochondrial respiratory chain inhibitors” (Archives of Toxicology, 2021).)
